Measured values from US11873298B2, “Compounds and uses thereof” (JANSSEN PHARMACEUTICA NV, priority 2017, dated 2024).
pEC50, pIC50: −log10 of the molar value.

Assays:
[1] = test system: U2OS cells transiently overexpressing alpha-synuclein; experiment: U2OS transient overexpression induced cytotoxicity assay (ATP content, CellTiter-Glow); assay type: cell-based, human; settings: 72 hours post transfection
Protocol: U2OS (Sigma-Aldrich), a human bone osteosarcoma epithelial cell line, is regularly maintained in McCoy's 5A medium (ATCC) supplemented with 10% FBS (ThermoFisher) between passage 11-21 and sub -cultured twice a week for the assay.
On the day of experiment, cells are about 80% confluence and trypsinized using 0.25% trypsin-EDTA (ThermoFisher Inc.) for 5 minutes at 37 c. Based on a ratio of 2 ug DNA/2e5 cells, required cells are spun down at 800 rpm for 5 minutes at room temperature. Cells are then re-suspended in SE solution (Lonza Inc.) at a density of 2e4 cells/μl. Nucleofection is performed using 4D-Nucleofector™ System (Lonza Inc.) under program code CM130. Cells are allowed to recover in the cuvette at room temperature for 10-15 minutes before further handling. Pre-warmed medium is added and cells suspension is thoroughly but gently mixed before plating. Cells are seeded at 2e4 cells/100 µl/well into 96 well PLD-coated white plate (Corning) using customized Viaflow program (Integra Biosciences). Serial dilution of drugs is carried out in DMSO. Drug solution is prepared at 6× fold, 20 ul of which is added to cells 4 hours after transfection. The final DMSO concentration is 0.3%. Microclimate lid (Labcyte) is strongly recommended to reduce evaporation and variation. Seventy-two hours post transfection, cells are lysed using CellTiter-Glow (Promega) and ATP content is determined using a luminescence plate reader (Perkin Elmer).
% Maximum fold rescue at each concentration is calculated as follows: […]
FK506 (tacrolimus), a macrolide calcineurin inhibitor, is used as reference compound in the assay.
% Rescue (normalized by max fold rescue of FK506)=(% Fold^αSyn drug-100)*100/(% Max fold^αSyn FK506-100).

SCD1 = biological target: T1, SCD1 (Homo sapiens, UniProt O00767); experiment: Growth inhibition of humanized yeast strain expressing SCD1 as sole desaturase; assay type: cell-based; settings: humanized yeast strain expressing SCD1
T1 construct: host or cells: S. cerevisiae ole1Δ strain (W303 pdr1Δ pdr3Δ background), plasmid pRS316 with TDH3 promoter and CYC1 terminator
T1 sequence (O00767 1-359): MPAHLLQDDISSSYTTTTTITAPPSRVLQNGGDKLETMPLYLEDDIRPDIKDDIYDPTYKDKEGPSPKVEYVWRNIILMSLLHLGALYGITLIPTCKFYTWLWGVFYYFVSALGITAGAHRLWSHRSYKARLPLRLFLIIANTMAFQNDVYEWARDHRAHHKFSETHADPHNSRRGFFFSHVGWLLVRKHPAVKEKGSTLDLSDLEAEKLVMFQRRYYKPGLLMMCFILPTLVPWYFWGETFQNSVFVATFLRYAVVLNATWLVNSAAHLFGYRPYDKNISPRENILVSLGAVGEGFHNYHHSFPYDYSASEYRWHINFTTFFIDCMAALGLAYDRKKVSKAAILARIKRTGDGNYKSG
Method in brief: (§1)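 OD600 growth read-out. ole1Δ yeast, pdr1Δ pdr3Δ, with Ole1/SCD1/SCD5 on a plasmid; SX-Ura media throughout; 2× cell density 0.02 in CSM-Galactose; DMSO compound dilutions; humidified 30° C.; Ole1 stopped at 24 h, SCD1/SCD5 at 40 h.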

[2] = test system: yeast strains expressing the human ApoE4; experiment: Yeast ApoE4 toxicity rescue assay (OD600 growth); settings: 24 h; for pEC50: read-out: ApoE4 EC50; for Emax: read-out: ApoE4 Emax
Source text: (§2) The induced expression of α-synuclein and ApoE4 confers cytotoxicity, thus enabling the identification of compounds that can restore cell viability. This instantaneous/synchronous induction of α-synuclein and ApoE4 can be achieved due to the following expression control. In glucose-containing media, gene expression from the GAL1 promoter is ‘off’ and actively repressed by additional epigenetic factors. In raffinose, expression is ‘off’, but the promoter not actively repressed. Upon transition to galactose-containing media, the promoter is instantaneously turned ‘on’ to achieve robust and synchronous induction of α-synuclein or ApoE4 expression. This highly regulated induction provides a robust window for the determination of both efficacy (amplitude of protective effect) and potency (concentration of protective effect) of cytoprotective compounds.
(§3) Re-suspended compound stocks were subsequently arrayed into 384 well compound plates using automated pipetting. All other wells not receiving stock compound were filled with 10 μL of 100% DMSO using an automated plate filler (Multidrop Combi). An 11 point, 2-fold serial dilution was then performed using the robotic platform. Compound assay plates were covered with foil and stored at −20° C. until use.
(§4) Each strain was handled according to standard protocols and cultured in media composed of CSM (complete synthetic media), YNB (yeast nitrogenous base), and a 2% (w/v) carbon source (either glucose, raffinose, or galactose).
(§5) In a standard yeast assay, a single-use aliquot of cells was thawed on ice and diluted into CSM/glucose (5 mL). Cultures were grown for 8 hours at 30° C. This pre-growth enables the yeast to exit the thaw and begin to grow without expressing aSyn or ApoE4. After 8 hours, cell density (OD600) was determined and cultures diluted to an OD600 of 0.01 in CSM/raffinose for an overnight culture phase at 30° C. During this period, the active glucose repression of the GAL1 promoter was relieved; however, expression of the α-Syn/ApoE4 genes were not yet induced. After ˜16 hours of growth, cultures attain an OD600 of 0.4-0.8 and were ready to apply to assay plates containing compound.
(§6) Compound profiling assays were executed in clear-bottom 384 well plates. First, compound plates were thawed at room temperature for 45′, centrifuged at 1,000×g for 1 minute, and the foil removed. Clear 384 well assay plates were then filled with 15 μL of CSM/galactose. […] The pin tool was washed iteratively with both 50% DMSO and 100% ethanol between each assay plate. After delivering compound to each assay plate, the overnight CSM/raffinose aSyn or ApoE4 cultures were added at a 2X cell density (0.04 for aSyn and 0.08 for ApoE4) in CSM/galactose to achieve a final assay OD600 of 0.02 and 0.04 for aSyn and ApoE, respectively. The cultures (15 μL per well) were then dispensed to the compound -containing 384 well assay plates using an automated plate filler. Plates were incubated in a humidified 30° C. incubator for 40 or 24 hours for aSyn and ApoE4, respectively. The ODsoo of each assay plate was then read with a microplate reader (e.g., Perkin Elmer Envision).
(§7) The efficacy and potency of compounds were calculated according to the following. Raw data (OD600 values) were first background corrected to account for OD600 contributed by the plate and media itself. The efficacy (percent above DMSO, herein referred to as “Emax”) was calculated according to the equation: (Experimental well−DMSO control well)/(DMSO control well)*100. […] Normalized dose-response data was fit with a logistic regression curve using Spotfire (TIBCO), or similar curve-fitting software package. EC50 values were then reported along with EMax to provide both efficacy and potency measures for each analog and enable further compound design.

SCD5 = biological target: T2, SCD5 (Homo sapiens, UniProt Q86SK9); experiment: Growth inhibition of humanized yeast strain expressing SCD5 as sole desaturase; assay type: cell-based; settings: humanized yeast strain expressing SCD5
T2 construct: host or cells: S. cerevisiae ole1Δ strain (W303 pdr1Δ pdr3Δ background), plasmid pRS316 with TDH3 promoter and CYC1 terminator
T2 sequence (Q86SK9 1-330): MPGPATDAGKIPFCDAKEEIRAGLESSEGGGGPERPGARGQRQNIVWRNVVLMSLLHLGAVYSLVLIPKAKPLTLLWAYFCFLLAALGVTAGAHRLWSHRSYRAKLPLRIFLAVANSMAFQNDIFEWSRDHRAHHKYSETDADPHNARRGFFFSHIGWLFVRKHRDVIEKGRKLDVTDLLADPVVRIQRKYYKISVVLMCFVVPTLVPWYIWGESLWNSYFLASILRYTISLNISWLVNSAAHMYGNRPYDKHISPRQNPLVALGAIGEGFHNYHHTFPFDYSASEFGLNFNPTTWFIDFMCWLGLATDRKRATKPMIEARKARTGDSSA
Method in brief: as §1

Ole1 = biological target: T3, Ole1 (Saccharomyces cerevisiae, UniProt P21147); experiment: Growth inhibition of yeast strain expressing Ole1 as sole desaturase; assay type: cell-based; settings: yeast strain expressing Ole1 as sole desaturase
T3 construct: expressed in transfected cells; host or cells: S. cerevisiae ole1Δ strain (W303 pdr1Δ pdr3Δ background), plasmid pRS316 with TDH3 promoter and CYC1 terminator
T3 sequence (P21147 1-510): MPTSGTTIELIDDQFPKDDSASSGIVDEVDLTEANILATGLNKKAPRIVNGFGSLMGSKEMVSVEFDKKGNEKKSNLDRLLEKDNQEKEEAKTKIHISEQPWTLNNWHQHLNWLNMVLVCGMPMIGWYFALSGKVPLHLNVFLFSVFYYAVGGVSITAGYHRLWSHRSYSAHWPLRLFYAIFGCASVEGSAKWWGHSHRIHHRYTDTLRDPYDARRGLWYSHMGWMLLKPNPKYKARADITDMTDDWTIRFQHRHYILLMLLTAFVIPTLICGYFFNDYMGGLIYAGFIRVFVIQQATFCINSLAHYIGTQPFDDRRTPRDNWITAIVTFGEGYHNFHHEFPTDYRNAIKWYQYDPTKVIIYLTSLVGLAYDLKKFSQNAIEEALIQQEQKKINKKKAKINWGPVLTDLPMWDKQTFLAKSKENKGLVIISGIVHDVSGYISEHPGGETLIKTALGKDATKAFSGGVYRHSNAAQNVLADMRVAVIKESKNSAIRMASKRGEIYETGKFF
Method in brief: as §1

[3] = test system: yeast strains expressing the human α-synuclein; experiment: Yeast α-synuclein toxicity rescue assay (OD600 growth); settings: 40 h; for pEC50: read-out: α-Syn EC50; for Emax: read-out: α-Syn Emax
Source text: as §2, §3, §4, §5, §6, §7

| Compound | % Rescue (normalized by FK506 max rescue) ([1]; 0.01 μM) [%] | % Rescue (normalized by FK506 max rescue) ([1]; 0.1 μM) [%] | % Rescue (normalized by FK506 max rescue) ([1]; 0.3 μM) [%] | % Rescue (normalized by FK506 max rescue) ([1]; 1 μM) [%] | pIC50 (SCD1) | pEC50 [2] | Emax [2] [%] | pIC50 (SCD5) | pIC50 (Ole1) | pEC50 [3] | Emax [3] [%] | SCD1 % Max Inhibition (SCD1) [%] | SCD5 % Max Inhibition (SCD5) [%] | OLE1 % Max Inhibition (Ole1) [%] |
| --- | --- | --- | --- | --- | --- | --- | --- | --- | --- | --- | --- | --- | --- | --- |
| CCOc1ccc(-c2noc(C3CCN(C(=O)CNC(=O)c4ccccc4)CC3)n2)cc1OC [Example 155, N-(2-(4-(3-(4-ethoxy-3-methoxyphenyl)-1,2,4-oxadiazol-5-yl)piperidin-1-yl)-2-oxoethyl)benzamide] | −23 | 83 | 44 | 10 |  |  |  |  |  |  |  |  |  |  |
| Cc1nn(C)c2cc(-c3noc(C4CCN(C(=O)CNC(=O)c5ccccc5)CC4)n3)ccc12 [Example 40, N-(2-(4-(3-(1,3-dimethyl-1H-indazol-6-yl)-1,2,4-oxadiazol-5-yl)piperidin-1-yl)-2-oxoethyl)benzamide] | 107 | 137 | 105 | 77 |  |  |  |  |  |  |  |  |  |  |
| COc1ccc(-c2noc(C3CCN(C(=O)CNC(=O)c4ccc(C)c(C)c4)CC3)n2)cc1 [compound 16] |  |  |  |  | 4.43 | 4.67 | 418 | < 4.35 | < 4.35 | 4.75 | 249 |  |  |  |
| Cc1cccc(-c2nc(C3CCN(C(=O)C4CC(=O)N(c5ccc(C)c(C)c5)C4)CC3)no2)c1 (stereo not shown) [Compound 51] |  |  |  |  | < 4.35 |  | 286 | < 4.35 | < 4.35 | 4.96 | 137 | 76.83 | 6.59 | 102.56 |
| COc1ccc(-c2noc(C3CCN(C(=O)C(C)NC(=O)c4ccccc4)CC3)n2)cc1OC (stereo not shown) [Compound 28] |  |  |  |  | < 4.35 | 5.80 | 836 | < 4.35 | < 4.35 | 7.18 | 576 | 98.15 | 79.98 | 4.80 |
| CC(C)c1ccc(C(=O)N2CCC(c3noc(-c4cccc(F)c4)n3)CC2)cc1 [Compound 52] |  |  |  |  | < 4.35 | 4.84 | 154 | < 4.35 | < 4.35 | 5.04 | 82 | 1.65 | −1.01 | 11.78 |
| COc1ccc(-c2noc(C3CCN(C(=O)[C@@H](C)NC(=O)c4ccccc4)CC3)n2)cc1OC (single isomer, unassigned) [Compound 60] |  |  |  |  | < 4.35 | 6.92 | 795 | 4.39 | < 4.35 | 7.49 | 605 | 72.03 | 57.19 | 2.91 |
| COc1ccc(-c2noc(C3CCN(C(=O)COCc4ccccc4)CC3)n2)cc1OC [Compound 31] |  |  |  |  | < 4.35 | 5.01 | 721 | 4.60 | < 4.35 | 5.12 | 438 | 81.19 | 24.26 | 79.60 |
| COc1cccc(-c2noc(C3CCN(C(=O)CNC(=O)c4ccccc4)CC3)n2)c1 [compound 11] |  |  |  |  | < 4.35 |  | 600 | < 4.35 | < 4.35 | 5.23 | 309 |  |  |  |
| CCOc1ccc(-c2noc(C3CCN(C(=O)c4cnc(-c5ccccc5)[nH]4)CC3)n2)cc1OC [compound 98] |  |  |  |  | < 4.35 | 5.01 | 650 | 4.39 | < 4.35 | 5.10 | 386 |  |  |  |
| CCOc1ccc(-c2noc(C3CCN(C(=O)[C@H]4CC(=O)N(c5ccccc5)C4)CC3)n2)cc1OC [compound 85] |  |  |  |  | < 4.35 | 4.77 | 602 | < 4.35 | < 4.35 | 4.90 | 486 |  |  |  |
| COc1ccc(-c2noc(C3CCN(C(=O)[C@H](C)NC(=O)c4ccccc4)CC3)n2)cc1OC (single isomer, unassigned) [Compound 59] |  |  |  |  | < 4.35 |  | 47 | < 4.35 | < 4.35 | 4.81 | 82 | 79.13 | 59.32 | 105.25 |
| COc1ccc(-c2noc(C3CCN(C(=O)CNC(=O)c4ccccc4Cl)CC3)n2)cc1OC [compound 25] |  |  |  |  | < 4.35 | 5.73 | 889 | 4.40 | < 4.35 | 6.12 | 619 |  |  |  |
| Cc1ccc(-c2nc(C3CCN(C(=O)[C@H]4CC(=O)N(c5ccc(C)c(C)c5)C4)CC3)no2)cc1 (single isomer, unassigned) [compound 71] |  |  |  |  | < 4.35 | 5.05 | 235 | < 4.35 | < 4.35 | 5.09 | 151 |  |  |  |
| Cc1ccc(N2CC(C(=O)N3CCC(c4nc(-c5ccccc5)no4)CC3)CC2=O)cc1C (stereo not shown) [compound 1] |  |  |  |  | < 4.35 |  | 320 | < 4.35 | 4.39 |  | 155 |  |  |  |
